{"source": "patent US11648258B2", "about": "“Method and compounds for inhibiting the MCM complex and their application in cancer treatment” (priority 2012, dated 2023)", "key": {"[1]": {"tested_on": "normal cells (L-02, NP460)", "assay": "WST-1 anti-proliferation assay, normal cells (IC50)", "type": "cell-based", "conditions": "Homo sapiens, 48 hrs treatment", "experimental": "For testing the anti-proliferation activity of the compounds in human cell lines and calculation of IC50, cancer cells including HepG2, HeLa and Hep3B (4×10^5 cells/well) and normal L-02 cells (5×10^5 cells/well) were respectively seeded in 96-well plates in 100 μl of culture medium and incubated for about 12 hrs at 37° C. The cells were treated with two-fold serial dilutions of the drugs for 48 hrs. Medium was removed and 100 μl of culture medium containing 1 μM WST-1 (water soluble tetrazolium-1) were added to each well. The cells were incubated for 2 hrs, and absorbance at 405 nm (reference at 630 nm) was then measured. To construct the standard curve of the relationship between cell number and absorbance at OD405, serial dilutions of cells with known cell numbers were seeded and incubated for six hrs before being measured by the WST-1 assay. The cell viability was expressed as the ratio of the number of live cells treated with a candidate compound versus that of the DMSO-treated cells. […]"}, "[2]": {"tested_on": "L-02 cells (normal human liver cells)", "assay": "in vitro", "conditions": "L-02, 48 hrs", "experimental": "For testing the anti-proliferation activity of the compounds in human cell lines and calculation of IC50, cancer cells including HepG2, HeLa and Hep3B (4×10^5 cells/well) and normal L-02 cells (5×10^5 cells/well) were respectively seeded in 96-well plates in 100 μl of culture medium and incubated for about 12 hrs at 37° C. The cells were treated with two-fold serial dilutions of the drugs for 48 hrs. Medium was removed and 100 μl of culture medium containing 1 μM WST-1 (water soluble tetrazolium-1) were added to each well. The cells were incubated for 2 hrs, and absorbance at 405 nm (reference at 630 nm) was then measured. To construct the standard curve of the relationship between cell number and absorbance at OD405, serial dilutions of cells with known cell numbers were seeded and incubated for six hrs before being measured by the WST-1 assay. The cell viability was expressed as the ratio of the number of live cells treated with a candidate compound versus that of the DMSO-treated cells.\nA pair of human cell lines, L-02 (normal liver cells) and HepG2 (a liver cancer cell line) was treated with 17beta-Deacetyltanghinin for 48 hrs. […] In FIG. 2B-H, quantification of viable cell numbers was carried out using WST-1 (Water-soluble tetrazolium-1) assay.\nTo further test 17beta-Deacetyltanghinin and to determine the IC50 values, besides L-02 and HepG2, Hep3B (another liver cancer cell line which is p53-negative), HeLa (cervical cancer cell line), HK1 and C666-1 (nasopharyngeal carcinoma) cells and a hTert-immortalized normal nasopharyngeal cell line (NP460) were treated by 17beta-Deacetyltanghinin for 48 hrs, and the relative cell vabilities were determined by WST-1 assay (FIG. 2B, C)."}, "[3]": {"tested_on": "cancer cells (HeLa, HepG2)", "assay": "Flow cytometry / Annexin V staining (cell cycle, apoptosis) in cancer cells", "type": "cell-based, human", "experimental": "Both floating and attached cells were collected and washed once with PBS. Cells were fixed in 70% ethanol for 1 hr to overnight at −20° C., washed thoroughly with PBS, and then stained in 50 μg/ml RNase A, 0.1% Triton X-100, 0.1 mM EDTA (pH 7.4), and 50 μg/ml propidium iodide for 30 min at 4° C. Samples were analyzed with the FACSort instrument (Becton Dickinson).\nMoreover, inhibition of DNA replication and subsequent induction of apoptosis by 17beta-Deacetyltanghinin could be shown by flow cytometry. In FIG. 7. Hela cells were blocked at M phase by Nocodazole (Noc.; FIG. 7A), the G1/S transition by mimosine (MMS; FIG. 7B), or at early S phase by Hydroxyurea (HU; FIG. 7C) and then released into fresh medium in the presence of 17beta-Deacetyltanghinin (DAT). The cells at different time points after release were analyzed by follow cytometry. Ayn. means asynchronous cells. Untreated cells and cells treated with the solvent DMSO could complete M, G1 and S phases after release (FIG. 7A). […] Similarly, cells released from the Mimosine (MMS) arrest (at the G1/S transition; FIG. 7B) or Hydroxyurea (HU) arrest (in early S phase; FIG. 7C) could not finish S phase in the presence of 17beta-Deacetyltanghinin.\nIn FIG. 8A, flow cytometry was performed to analyze the DNA contents in HepG2 and L-02 cells treated with 17beta-Deacetyltanghinin at various concentrations for 24 hrs. In FIG. 8B, Hela cells were treated with 17beta-Deacetyltanghinin for 24 hrs and labeled with Annexin V-Cy3 (Arm. Cy3) for 20 min. Mitoxantrone (MTX), a clinical anticancer drug that can induce apoptosis in cancer cells, was used as a positive control."}, "[4]": {"tested_on": "HeLa cells", "assay": "BrdU incorporation assay (DNA replication) in HeLa cells", "type": "cell-based, human", "experimental": "Hela cells grown on cover slips coated with poly-D-lysine were incubated with 50 μM BrdU (Sigma) for 1 hr at 37° C. after 24 hrs of 17beta-Deacetyltanghinin treatment. Cells were then fixed in with 4% of PFA in PBS at room temperature for 20 min, permeabilized with 0.1% Triton X-100 and 1% BSA in PBS for 20 min, and then incubated sequentially with anti-BrdU (Sigma Chemical Company; 1:500) and anti-mouse IgG-FITC conjugates (Sigma Chemical Company; 1:500), each for 1 hr at 37° C., with three washes in PBS after each antibody incubation. BrdU signal was observed under the fluorescence microscope (Nikon TE2000E).\nAs 17beta-Deacetyltanghinin disrupts the interactions between hMcm2 and hMcm6 and inhibits the association of MCM proteins with chromatin, 17beta-Deacetyltanghinin should block DNA replication. To confirm this, we treated HeLa cells with 17beta-Deacetyltanghinin for 24 hrs and then labeled them with BrdU for 1 hr. Incorporated BrdU in the cellular DNA was detected by an anti-BrdU antibody followed by FITC-anti-mouse secondary antibodies which was visualized under the fluorescence microscope (FIG. 6A). DAPI was used to stain the nuclei (FIG. 6A), and the percentage of BrdU positive cells was quantified (FIG. 6B). […]"}}}
{"smiles": "COC1C(O)[C@H](O[C@H]2CC[C@]3(C)C4CC[C@]5(C)[C@@H](C6=CC(=O)OC6)CC[C@]5(O)[C@@]45O[C@H]5C[C@@H]3C2)OC(C)[C@@H]1O", "note": "(stereo partly drawn) [17beta-Deacetyltanghinin, 3β-O-(3-O-methyl-6-deoxy-α-L-glucopyranosyl)-7β,8β-epoxy-14β-hydroxy-card-20(22)-enolide]", "values": [{"measurement": "IC50", "setting": "[1]", "result": "> 4", "unit": "µg/mL"}, {"measurement": "activity towards normal cells, direct microscopy of cell density and morphology", "setting": "[2]", "result": "much lower activity"}, {"measurement": "Annexin V staining (apoptosis)", "setting": "[3]; HeLa cells, 24 hrs, Annexin V-Cy3", "result": "could be stained by Annexin V"}, {"measurement": "cell cycle progression after release from Nocodazole arrest", "setting": "[3]; HeLa cells, flow cytometry", "result": "could complete mitosis but could not enter S phase"}, {"measurement": "induction of apoptosis (sub-G1 population, flow cytometry)", "setting": "[3]; cancer cells", "result": "induced apoptotic cell death in cancer cells"}, {"measurement": "BrdU positive cells", "setting": "[4]; HeLa cells arrested with Mimosine, 12 hrs pre-treatment, released in presence of compound, controls ~100%", "result": "~40", "unit": "%"}, {"measurement": "BrdU signal (DNA replication)", "setting": "[4]; asynchronous HeLa cells, 24 hrs, above 0.2 ∝g/ml", "result": "almost no BrdU signal"}]}
